The values that follow come from ChEMBL document CHEMBL1201862, “PubChem BioAssay data set” (2004).

What is called EC50 is the concentration that produces a half-maximal response. For orientation: AC50 means the concentration giving half of the maximal activity seen.

One experiment deals with H4. Kind of experiment: Luminescence Cell-Based Dose Response HTS to Identify Activators of 5'UTR Stem-Loop Driven Prion Protein mRNA Translation in H4 Neuroglioblastoma Cells. [Related pubchem assays: 1829 (Project Summary), 1814 (Primary HTS)]. It counts as functional. Conditions: Homo sapiens.
The target in the next experiment is T1, Streptokinase A (Streptococcus pyogenes serotype M1, UniProt P10520).
T1 sequence (P10520 whole entry): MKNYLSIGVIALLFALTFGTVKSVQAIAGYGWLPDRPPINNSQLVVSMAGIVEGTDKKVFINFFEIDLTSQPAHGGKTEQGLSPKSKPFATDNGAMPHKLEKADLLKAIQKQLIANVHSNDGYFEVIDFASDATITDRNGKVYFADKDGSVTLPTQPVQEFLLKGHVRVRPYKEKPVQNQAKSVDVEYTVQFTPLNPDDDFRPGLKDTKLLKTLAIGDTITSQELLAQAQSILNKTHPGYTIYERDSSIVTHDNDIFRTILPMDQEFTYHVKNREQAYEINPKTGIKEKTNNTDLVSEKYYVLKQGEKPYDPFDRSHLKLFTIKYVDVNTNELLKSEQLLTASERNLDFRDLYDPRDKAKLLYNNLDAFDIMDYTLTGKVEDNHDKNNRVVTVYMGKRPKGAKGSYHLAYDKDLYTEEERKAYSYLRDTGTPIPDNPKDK
As to the kind of experiment: S. pyogenes streptokinase expression inhibitors, potency, dose response, plasminogen activation absorbance, OD405 (AID 1914).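 Also: secreted streptokinase activity via plasminogen activation per viability signal from cell pellet.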 The experiment is classed as functional, Streptococcus pyogenes M1 GAS.

Experiment [1] has as its system Streptococcus sp. 'group A'. As to the kind of experiment: growth inhibition of control SK(-) GAS strain, dose response, counter-screen for streptokinase expression inhibitor project, luminescence, kanamycin, BacTiterGlo, confirmation (AID 1900). The experiment is classed as functional, organism-based. (A counterscreen serves to expose hits that act by an unwanted route or on another target.)

The next experiment concerns Streptococcus. Kind of experiment: Group A Streptococcus viability loss, dose response, counter-screen for streptokinase expression inhibitor project, luminescence, BacTiterGlo (AID 1915).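 Also: potency for reduction of bacterial viability or growth.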 It counts as functional, organism-based.
The target in a further experiment is Cytochrome P450 2D6 (Homo sapiens, UniProt P10635).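 Also: CYP2D6 member of a cytochrome P450 panel assay.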
A further experiment concerns the target Cytochrome P450 2C19 (Homo sapiens, UniProt P33261). As to the kind of experiment: Cytochrome panel assay with activity outcomes. Panel member name: p450-cyp2c19 Compounds with AC50 equal or less than 10 uM are considered active. It counts as functional. Conditions: read-out: AC50.
The target of a further experiment is Cytochrome P450 2C9 (Homo sapiens, UniProt P11712).
The nature of experiment [2]: cytotoxicity toward NIH3T3 fibroblasts, dose response, counter-screen, cell-based, ATP luminescence, mouse fibroblasts (AID 2010).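 Also: cells exposed to compound for about 90 hours before reading.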 It counts as functional.
Experiment [3] is described as follows: inhibitors of intracellular T. cruzi replication, confirmation, NIH3T3 host cells, beta-gal luminescence (AID 2044).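 Also: intracellular parasites grown in NIH/3T3 mouse fibroblasts as host cells; luminescent beta-galactosidase reporter signal from transgenic T. cruzi replicating inside host cells; inhibitors lower the luminescence signal.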 The experiment is classed as functional, cell-based.
Experiment [4] is described as follows: Luminescence Cell-Based Dose Response HTS to Identify Activators of Luciferase Translation or Activity in H4 […] Cells. [Related pubchem assays: 1829 (Project Summary), 1814 (Primary HTS)]. It counts as functional.
In another experiment the target is Cytochrome P450 3A4 (Homo sapiens, UniProt P08684).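 Also: CYP3A4 tested as one member of a cytochrome P450 panel screen.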

Active and inactive are the calls of the source. Where only a bound is given, the exact number is not on record here.

Sequence of Cytochrome P450 2C9 (P11712 whole entry): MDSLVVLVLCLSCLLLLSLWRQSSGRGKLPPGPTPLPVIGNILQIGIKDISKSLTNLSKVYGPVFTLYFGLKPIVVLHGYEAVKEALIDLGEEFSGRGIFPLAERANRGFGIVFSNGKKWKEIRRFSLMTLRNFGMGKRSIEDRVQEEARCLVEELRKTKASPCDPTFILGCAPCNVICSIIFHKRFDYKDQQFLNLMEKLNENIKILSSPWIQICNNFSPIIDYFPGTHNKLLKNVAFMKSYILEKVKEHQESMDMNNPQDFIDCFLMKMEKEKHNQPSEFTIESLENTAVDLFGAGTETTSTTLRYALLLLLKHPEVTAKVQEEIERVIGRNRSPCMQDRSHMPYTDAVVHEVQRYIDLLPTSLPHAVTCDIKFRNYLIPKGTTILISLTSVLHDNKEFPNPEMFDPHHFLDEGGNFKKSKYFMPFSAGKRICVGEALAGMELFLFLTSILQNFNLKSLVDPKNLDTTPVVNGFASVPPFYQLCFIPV
Sequence of Cytochrome P450 2C19 (P33261 whole entry): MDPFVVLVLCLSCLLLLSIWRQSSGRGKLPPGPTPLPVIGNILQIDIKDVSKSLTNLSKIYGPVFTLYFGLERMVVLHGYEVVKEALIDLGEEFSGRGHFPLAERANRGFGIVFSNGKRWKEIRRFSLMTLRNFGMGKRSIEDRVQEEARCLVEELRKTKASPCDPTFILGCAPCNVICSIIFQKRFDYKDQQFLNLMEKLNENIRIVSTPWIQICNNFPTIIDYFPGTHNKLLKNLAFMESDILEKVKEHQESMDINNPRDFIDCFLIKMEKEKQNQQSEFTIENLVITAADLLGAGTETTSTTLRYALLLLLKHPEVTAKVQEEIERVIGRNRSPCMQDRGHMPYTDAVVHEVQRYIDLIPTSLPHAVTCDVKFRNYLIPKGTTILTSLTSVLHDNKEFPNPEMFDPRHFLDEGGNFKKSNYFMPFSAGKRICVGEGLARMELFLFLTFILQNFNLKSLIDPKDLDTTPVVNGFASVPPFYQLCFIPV
Sequence of Cytochrome P450 2D6 (P10635 whole entry): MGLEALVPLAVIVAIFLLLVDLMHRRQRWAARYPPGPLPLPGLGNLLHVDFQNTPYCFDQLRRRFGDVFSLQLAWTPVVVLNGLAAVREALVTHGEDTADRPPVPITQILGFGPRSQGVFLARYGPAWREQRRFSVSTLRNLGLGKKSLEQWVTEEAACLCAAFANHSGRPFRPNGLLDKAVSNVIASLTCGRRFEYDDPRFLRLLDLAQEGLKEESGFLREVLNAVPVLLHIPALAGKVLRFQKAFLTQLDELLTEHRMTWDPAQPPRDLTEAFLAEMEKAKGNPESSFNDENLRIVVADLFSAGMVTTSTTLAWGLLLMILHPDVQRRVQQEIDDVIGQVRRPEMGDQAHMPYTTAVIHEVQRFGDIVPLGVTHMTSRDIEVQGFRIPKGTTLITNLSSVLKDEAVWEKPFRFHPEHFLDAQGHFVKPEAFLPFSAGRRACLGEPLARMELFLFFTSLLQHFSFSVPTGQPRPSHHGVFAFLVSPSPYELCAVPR
Sequence of Cytochrome P450 3A4 (P08684 whole entry): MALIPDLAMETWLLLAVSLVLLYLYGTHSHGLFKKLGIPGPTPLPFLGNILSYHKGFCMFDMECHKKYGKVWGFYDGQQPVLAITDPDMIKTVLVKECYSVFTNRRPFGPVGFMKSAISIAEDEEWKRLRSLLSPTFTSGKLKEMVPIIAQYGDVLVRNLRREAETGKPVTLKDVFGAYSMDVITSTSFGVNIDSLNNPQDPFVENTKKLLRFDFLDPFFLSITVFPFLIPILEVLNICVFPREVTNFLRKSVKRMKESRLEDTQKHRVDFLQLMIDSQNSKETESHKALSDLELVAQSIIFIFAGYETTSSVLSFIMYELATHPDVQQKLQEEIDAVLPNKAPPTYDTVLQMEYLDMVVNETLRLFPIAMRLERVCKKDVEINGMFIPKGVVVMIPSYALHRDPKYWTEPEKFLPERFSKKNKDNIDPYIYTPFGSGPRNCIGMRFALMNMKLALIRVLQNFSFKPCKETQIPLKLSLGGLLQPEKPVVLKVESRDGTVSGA

Take `O=C(Nc1ccc(-c2nc3ccccc3s2)c(OC(=O)c2ccccc2)c1)c1ccccc1`: in the experiment with H4, the EC50 is listed as > 120 µM (not active).

Turning to `O=C(Nc1cc(Cl)cc(Cl)c1)Nc1cnccn1`, the EC50 was > 150 µM (not active) at Streptokinase A, 7.66 µM (active) in experiment [1] and > 150 µM (not active) in the experiment on Streptococcus.

As for `O=C1NC(=Nc2ccccn2)SC1Cc1ccc(Cl)cc1` (centres undefined), the EC50 at Streptokinase A was > 150 µM (not active).

As to `O=C(Nc1cccc(F)c1)N1CC2(CCN(S(=O)(=O)c3ccccc3)CC2)C1`, the half-maximal activity concentration (AC50) on Cytochrome P450 2D6 is 39.8 µM (inconclusive); at Cytochrome P450 2C19 it was 15.8 µM (inconclusive); at Cytochrome P450 2C9 it was 20 µM (inconclusive).

Take `CC1=NN(C(=Nc2ccc(C(C)(C)C)cc2)Nc2nnc(C)s2)[C@H](c2ccc(C)cc2)S1`: the EC50 on Streptokinase A was 13.9 µM (active); in [2], > 60 µM (not active); in experiment [1] it was 8.28 µM (active); in the experiment with Streptococcus, > 150 µM (not active); in experiment [3], 1.85 µM (active).

As for `Brc1ccc(-c2cn3c(n2)CCc2ccc4cccnc4c2-3)cc1`, the EC50 on Streptokinase A is 23.8 µM (active); in experiment [1] it was 4.51 µM (active); in the experiment on Streptococcus, > 150 µM (not active).

As to `COCCn1c(N)c(C(=O)NS(=O)(=O)c2ccc(C)cc2)c(=O)[nH]c1=O`, the EC50 (on Streptokinase A; in experiment [1]; in the experiment on Streptococcus) was > 150 µM (not active) in each case.

In the case of `Cc1ccc(/N=c2/sc(C)c(C)n2C)cc1`, the values for the EC50 (in experiment [4]; in the experiment with H4) were 13.9 µM (active) and 108 µM (active), respectively.

`CN(C)c1ccc(-c2ccc3ncnc(NCc4ccccc4)c3c2)cc1`: the concentration at half-maximal activity (AC50) at Cytochrome P450 2D6 is 12.6 µM (inconclusive).

Turning to `Cc1ccc(C2=C(Cl)C(=O)C(c3ccc(C)cc3)=C(Cl)C2=O)cc1`, the AC50 at Cytochrome P450 2D6 and on Cytochrome P450 2C19 was 3.98 µM (inconclusive) in each case.

For `N#Cc1c(N2CCOCC2)nsc1-c1ccc(C(F)(F)F)cc1`, the results for the EC50 (in experiment [4]; in the experiment with H4) were 10.9 µM (active) and 24.7 µM (active), respectively.

As for `Cc1cc2oc(=O)cc(CN(C)Cc3ccccc3Cl)c2cc1C`, the EC50 was 14.4 µM (active) at Streptokinase A, 20.8 µM (active) in experiment [1] and > 150 µM (not active) in the experiment on Streptococcus.

As to `Clc1ccccc1-c1nc(Nc2ccncc2)c2ccccc2n1`, the AC50 on Cytochrome P450 2D6 was 39.8 µM (inconclusive); on Cytochrome P450 2C9, 1.58 µM (inconclusive).

Consider `Cc1ccccc1-c1nccc(Nc2ccc(F)cc2)n1`, for which the AC50 at Cytochrome P450 2D6 was 20 µM (inconclusive).

For the molecule `Cc1ccc2nc(-c3ccc(NS(=O)(=O)c4ccc(F)c(F)c4)cc3)sc2c1`, the results for the EC50 (on Streptokinase A; in experiment [1]; in the experiment on Streptococcus) were 5.1 µM (active), 2.65 µM (active) and 5.92 µM (active), respectively.

Regarding `COC(=O)CSc1nnc(-c2cnccn2)n1C`, the EC50 (at Streptokinase A; in experiment [1]; in the experiment with Streptococcus) was > 150 µM (not active) in each case.

For `COc1cccc(/C=N/NC(=O)c2cc(-c3cccn3C)[nH]n2)c1`, the AC50 at Cytochrome P450 2D6 was 0.00794 µM (inconclusive).

For the molecule `COc1ccccc1NS(=O)(=O)c1cccc(C(=O)OCC(=O)Nc2cc(C)on2)c1`, the values for the concentration at half-maximal activity (AC50) on Cytochrome P450 2D6 and at Cytochrome P450 2C9 were 31.6 µM (inconclusive) and 12.6 µM (inconclusive), respectively.

As for `O=C(NC(=S)Nc1ccc(Br)cn1)c1cncc(Br)c1`, the AC50 on Cytochrome P450 2D6 is 0.631 µM (inconclusive); at Cytochrome P450 2C19, 35.5 µM (inconclusive); at Cytochrome P450 2C9, 0.447 µM (inconclusive).

On to `CC(=O)N1N=C(c2ccc(C)cc2)OC1c1ccc(C(C)C)cc1` (centres undefined), for which the EC50 was > 120 µM (not active) in experiment [4] and 6.68 µM (active) in the experiment with H4.

Consider `O=C(Nc1cccc(-c2nnc(-c3ccccc3)o2)c1)c1ccc(Br)o1`, for which the half-maximal effective concentration (EC50) was > 150 µM (not active) on Streptokinase A, 9.53 µM (active) in experiment [1] and 14.2 µM (active) with Streptococcus.

For the molecule `COc1ccccc1-c1nc(NCCN2CCOCC2)c2ccccc2n1`, the AC50 on Cytochrome P450 3A4 and on Cytochrome P450 2D6 was 31.6 µM (inconclusive) each time.

Turning to `C[C@@H]1CC[C@@]2(OC1)O[C@H]1C[C@H]3[C@@H]4CC=C5C[C@@H](O)[C@H](O)C[C@]5(C)C4CC[C@]3(C)[C@H]1[C@@H]2C` (some centres undefined), the results for the EC50 (on Streptokinase A; in experiment [1]; in the experiment with Streptococcus) were > 150 µM (not active), 4.77 µM (active) and 16.4 µM (active), respectively.
